Test results taken from patent US20140303116A1, “CARNOSINE HYALURONIC ACID MIXTURES AND THEIR USE” (priority 2010, published 2014).

Tests used:
[1] = test system: skin fibroblasts; experiment: scratch assay, migration of skin fibroblasts; type: cell-based; conditions: 48 hours of treatment after scratching; doses of between 0.2 and 0.8%; mitomycin C pre-treated cells, DMEM with 10% FCS
Protocol: The solutions obtained from Examples 2 and 3 were used to prepare dilute […], and these solutions, whose pH initially changed from 3 to 1.5, were neutralized by the addition of NaOH.
The effect of the above solutions on the migration of skin fibroblasts was tested in vitro by means of a scratch assay. In this test, cells mimic cell migration during an in vivo tissue repair.
The method is based on scratch-wounding a confluent monolayer of cells so that the cells capable of migration are stimulated to cover the artificial gap in an attempt to re-establish new cell-to-cell contacts. […]
In this assay, the fibroblasts were scratch-wounded and then treated with the test substances at different concentrations. At 48 hours after treatment, cells were photographed and stained with crystal violet, and the migrated cells were counted under an optical microscope. […]
Cells were cultivated in DMEM with 10% FCS and treated with the dilute solutions of L-carnosine hyaluronate as described above for 48 hours after scratching. […] Cells were counted after staining with crystal violet.
Cells were cultivated in DMEM with 10% FCS and treated with the dilute solutions of D-carnosine hyaluronate as described above for 48 hours after scratching. […] Cells were counted after staining with crystal violet.

[2] = test system: collagen III; experiment: collagen III expression in fibroblasts by Western blotting; type: cell-based; conditions: fibroblasts exposed to 1.0 and 1.5% for 48 hours, beta-actin internal control
Protocol: The effect of solutions diluted to 1% and 1.5% and neutralized according to Example 4 on the production of collagen by fibroblasts treated with these solutions was verified.
The Western blotting technique was used to verify any production of collagen by the fibroblasts treated with L- and D-carnosine hyaluronate for 48 hours.
Fibroblast cultures were lysed with RIPA buffer at pH 7.4. Then, the samples were run onto a 10% SDS-polyacrylamide gel under reducing conditions. When the run has been completed, the proteins were transferred onto nitrocellulose membranes, incubated with anti-collagen III antibodies and then with the secondary antibody. […] The beta-actin expression was used as an internal control.

Substance | migration of skin fibroblasts (migrated cell count) [1] | collagen III synthesis vs control cells treated with saline [2]
D-carnosine hyaluronate | statistically significantly migrate | synthesize more collagen III than control cells
L-carnosine hyaluronate | statistically significantly migrate | synthesize more collagen III than control cells
